# Experimental data reported in patent publication US8222278B2, “Treatment of attention-deficit/hyperactivity disorder” (Abbott Laboratories, priority 2008, dated 2012).
# Tests used:
# Type in all cases: in vivo, human
# adults with ADHD [1] = test: Study A: ABT-894 Adult ADHD Dose-Ranging crossover clinical study, efficacy rating scales
# Description: (§1) A clinical study (Study A) was conducted to assess the safety and efficacy of ABT-894 compared to placebo in adults with ADHD and to evaluate the dose-response relationship.
# A total of 243 subjects aged 18 to 60 years old meeting DSM-IV-TR criteria for ADHD were randomized across the 5 dose groups. Male or female patients were included. […] The disposition of the study subjects is further discussed with the study results below.
# (§2) Subjects in each dose group received, in random order, both ABT-894 and placebo according to a 2×2 crossover design. Each treatment period was 4 weeks separated by a 2-week washout period.
# Each site was assigned to one of two cohorts (Cohort A or Cohort B) in approximately a 3:2 ratio. Subjects in Cohort A were randomized in equal proportions to one of 6 treatment sequences in 3 dose groups, and subjects in Cohort B were randomized in equal proportions to one of 4 treatment sequences in 2 dose groups, as shown in Table 1. Within each dose group subjects received either ABT-894 or atomoxetine in Period 1 and placebo in Period 2, or placebo in Period 1 and ABT-894 or atomoxetine in Period 2.
# The study medication was dispensed in the form of a capsule. Each capsule contained ABT-894, atomoxetine, or placebo. The capsules were made to look identical.
# The primary efficacy endpoint was the Conners' Adult ADHD Rating Scale—Investigator Rated (CAARS:Inv) Total Score (18 items) at the final evaluation of each 4-week treatment period. The CAARS:Inv was assessed at baseline and Days 7. 14. 21, and 28 of each period. Each CAARS:Inv item was rated on a 4-point scale of frequency of occurrence (0=not at all, never; 3=very much. very frequently) during the previous 7 days.
# (§3) Secondary efficacy endpoints included the CAARS:Inv Inattentive and Hyperactive/Impulsive Subscale Scores, Clinical Global Impression-ADHD-Severity Scale (CGI-ADHD-S). Adult ADHD Investigator Symptom Report Scale (AISRS), including total and subscales, and the Self-rated Connors Adult ADHD Rating Scale (CAARS-Self). Health outcomes including the Adult ADHD Quality of Life Scale (AAQoL) and Work Productivity and Activity Impairment Questionnaire (WPAI) were used to evaluate the validity of these scales in this study population for use in subsequent clinical trials.
# The primary analysis was performed on each dose group separately according to the Statistical Analysis Plan (SAP). The primary statistical model that was used for analyzing the primary efficacy variable, the CAARS:INV total score, and all other secondary efficacy variables was determined by a SAP specified testing procedure. The comparability between two sequences for a given dose group with respect to the difference between period-specific baselines was tested using a one-way ANCOVA with the term of treatment and the Period I baseline as the covariate at the significance level of 0.10. The equal residual effect from Period I to Period II between two different sequences for a given dose group was tested using a standard model for cross-over data analysis, Grizzle model, on the term of “sequence” at the significance level of 0.10.
# After the study blind was broken, across 5 dose groups. all the tests accepted the null hypothesis that there was no statistically significant treatment effect for the differences between the period-specific baselines. The tests also accepted the null hypothesis that there was no period residual effect in any of the dose groups. Accordingly, the Grizzle model was used as the primary analysis model to analyze treatment group difference for CAARS:INV total score at Day 28 for each dose group. The Grizzle Model was carried out by SAS PROC Mixed with the terms of study center. sequence, subjects within sequence, period, treatment, as well as period-specific baselines as covariates.
# The primary efficacy dataset included all subjects who completed both periods of the study (completers dataset). […]
# adults with ADHD [2] = test: Study A: patient-reported health outcomes (AAQoL, WPAI); set-up: WPAI Absenteeism (employed), Mean Diff. / WPAI Impaired Work Effectiveness (employed), Mean Diff. / AAQoL Total, Mean Diff. / WPAI Overall Activity Impairment (all), Mean Diff. / WPAI Overall Work Impairment (employed), Mean Diff.: scale not given here
# Description: as §1, §2, §3
# adults with ADHD [3] = test: Study A: weight and vital signs; settings: final evaluation (LOCF)
# Description: The treatment group differences in vital signs were analyzed using a Grizzle Model similar to the model used for the efficacy analyses with the exclusion of period-specific baselines.
# [4] = ABT-894 1 mg QD, day 28, completers N = 40
# [5] = ABT-894 2 mg QD, day 28, completers N = 37
# [6] = ABT-894 4 mg BID, day 28, completers N = 43
# [7] = ABT-894 4 mg QD, day 28, completers N = 36
smiles,measurement,setting,value
"Clc1cc(N2C[C@@H]3CN[C@@H]3C2)cnc1Cl [ABT-894, 3-(5,6-Dichloro-pyridin-3-yl)-1S,5S-3,6-diazabicyclo[3.2.0]heptane]","AISRS Hyperactivity Score, mean difference from placebo",adults with ADHD [1]; [4],"1.53 (−0.8, 3.8)"
same,"AISRS Inattention Score, mean difference from placebo",adults with ADHD [1]; [4],"1.72 (−0.6, 4.1)"
same,"AISRS Total Score, mean difference from placebo",adults with ADHD [1]; [4],"3.19 (−1.2, 7.6)"
same,"CAARS:Inv ADHD Index, mean difference from placebo",adults with ADHD [1]; [4],1.84 (−0.0. 3.7)
same,"CAARS:Inv Hyperactive/Impulsive subscale score, mean difference from placebo",adults with ADHD [1]; [4],"0.93 (−0.2, 2.0)"
same,"CAARS:Inv Inattentive subscale score, mean difference from placebo",adults with ADHD [1]; [4],"0.94 (−1.5, 3.4)"
same,"CAARS:Inv Total Score, mean difference from placebo",adults with ADHD [1]; [4],"2.11 (−2.4, 6.6)"
same,"CAARS:Self ADHD Index, mean difference from placebo",adults with ADHD [1]; [4],"2.04 (0.2, 3.9)"
same,"CAARS:Self Hyperactivity Score, mean difference from placebo",adults with ADHD [1]; [4],"0.68 (−0.4, 1.8)"
same,"CAARS:Self Impulsivity Score, mean difference from placebo",adults with ADHD [1]; [4],"0.65 (−0.1, 1.4)"
same,"CAARS:Self Inattention/Memory Score, mean difference from placebo",adults with ADHD [1]; [4],"0.60 (−0.5, 1.7)"
same,"CAARS:Self Problem with Self-concept Score, mean difference from placebo",adults with ADHD [1]; [4],"0.51 (−0.2, 1.2)"
same,"CAARS:Self Total Score, mean difference from placebo",adults with ADHD [1]; [4],"3.57 (−0.4, 7.5)"
same,"CGI-ADHD-S, mean difference from placebo",adults with ADHD [1]; [4],"0.04 (−0.3, 0.4)"
same,"Measures of sustained attention, inhibitory control, and executive function",adults with ADHD [1]; ABT-894 2 mg QD,"improved measures of sustained attention, inhibitory control, and executive function"
same,"AISRS Hyperactivity Score, mean difference from placebo",adults with ADHD [1]; [5],"−1.11 (−3.0, 0.7)"
same,"AISRS Inattention Score, mean difference from placebo",adults with ADHD [1]; [5],"−1.59 (−3.6, 0.4)"
same,"AISRS Total Score, mean difference from placebo",adults with ADHD [1]; [5],"−2.72 (−6.4, 1.0)"
same,"CAARS:Inv ADHD Index, mean difference from placebo",adults with ADHD [1]; [5],"−1.52 (−3.3, 0.2)"
same,"CAARS:Inv Hyperactive/Impulsive subscale score, mean difference from placebo",adults with ADHD [1]; [5],"−0.55 (−1.4, 0.3)"
same,"CAARS:Inv Inattentive subscale score, mean difference from placebo",adults with ADHD [1]; [5],"−1.92 (−3.8, −0.1)"
same,"CAARS:Inv Total Score, mean difference from placebo",adults with ADHD [1]; [5],"−3.18 (6.7,0.3)"
same,"CAARS:Self ADHD Index, mean difference from placebo",adults with ADHD [1]; [5],"−1.50 (−3.3, 0.3)"
same,"CAARS:Self Hyperactivity Score, mean difference from placebo",adults with ADHD [1]; [5],"−0.57 (−1.4, 0.3)"
same,"CAARS:Self Impulsivity Score, mean difference from placebo",adults with ADHD [1]; [5],"−0.48 (−1.3, 0.3)"
same,"CAARS:Self Inattention/Memory Score, mean difference from placebo",adults with ADHD [1]; [5],"−0.23 (−1.2, 0.8)"
same,"CAARS:Self Problem with Self-concept Score, mean difference from placebo",adults with ADHD [1]; [5],"−0.57 (−1.6, 0.5)"
same,"CAARS:Self Total Score, mean difference from placebo",adults with ADHD [1]; [5],"−2.64 (−6.6, 1.3)"
same,"CGI-ADHD-S, mean difference from placebo",adults with ADHD [1]; [5],"−0.31 (−0.6, 0.0)"
same,Efficacy measures compared with atomoxetine,adults with ADHD [1]; ABT-894 4 mg BID vs atomoxetine,comparable across efficacy measures
same,"AISRS Hyperactivity Score, mean difference from placebo",adults with ADHD [1]; [6],"−3.58 (−5.6, −1.6)"
same,"AISRS Inattention Score, mean difference from placebo",adults with ADHD [1]; [6],"−4.26 (−6.6, −1.9)"
same,"AISRS Total Score, mean difference from placebo",adults with ADHD [1]; [6],"−8.07 (−12.2, −3.9)"
same,"CAARS:Inv ADHD Index, mean difference from placebo",adults with ADHD [1]; [6],−3.37 (−5.3. −1.4)
same,"CAARS:Inv Hyperactive/Impulsive subscale score, mean difference from placebo",adults with ADHD [1]; [6],"−1.90 (−3.0, −0.8)"
same,"CAARS:Inv Inattentive subscale score, mean difference from placebo",adults with ADHD [1]; [6],"−4.08 (−6.4, −1.7)"
same,"CAARS:Self ADHD Index, mean difference from placebo",adults with ADHD [1]; [6],"−3.31 (−5.2, −1.4)"
same,"CAARS:Self Hyperactivity Score, mean difference from placebo",adults with ADHD [1]; [6],"−1.74 (−2.9, −0.6)"
same,"CAARS:Self Impulsivity Score, mean difference from placebo",adults with ADHD [1]; [6],"−0.70 (−1.4, −0.0)"
same,"CAARS:Self Inattention/Memory Score, mean difference from placebo",adults with ADHD [1]; [6],"−1.40 (−2.5, −0.3)"
same,"CAARS:Self Problem with Self-concept Score, mean difference from placebo",adults with ADHD [1]; [6],"−1.39 (−2.5, −0.3)"
same,"CAARS:Self Total Score, mean difference from placebo",adults with ADHD [1]; [6],"−7.34 (−11.6, −3.1)"
same,"CGI-ADHD-S, mean difference from placebo",adults with ADHD [1]; [6],"−0.58 (−1.0, −0.2)"
same,"AISRS Hyperactivity Score, mean difference from placebo",adults with ADHD [1]; [7],"−0.81 (−2.6, 1.0)"
same,"AISRS Inattention Score, mean difference from placebo",adults with ADHD [1]; [7],"0.81 (−1.2, 2.8)"
same,"AISRS Total Score, mean difference from placebo",adults with ADHD [1]; [7],"−0.13 (−3.6, 3.4)"
same,"CAARS:Inv ADHD Index, mean difference from placebo",adults with ADHD [1]; [7],"−0.12 (−1.8, 1.5)"
same,"CAARS:Inv Hyperactive/Impulsive subscale score, mean difference from placebo",adults with ADHD [1]; [7],"−1.07 (−2.1, −0.0)"
same,"CAARS:Inv Inattentive subscale score, mean difference from placebo",adults with ADHD [1]; [7],"0.60 (−1.5, 2.7)"
same,"CAARS:Inv Total Score, mean difference from placebo",adults with ADHD [1]; [7],"0.23 (−3.2, 3.7)"
same,"CAARS:Self ADHD Index, mean difference from placebo",adults with ADHD [1]; [7],"−0.19 (−1.9, 1.5)"
same,"CAARS:Self Hyperactivity Score, mean difference from placebo",adults with ADHD [1]; [7],"−0.78 (−1.8, 0.2)"
same,"CAARS:Self Impulsivity Score, mean difference from placebo",adults with ADHD [1]; [7],"−0.02 (−0.9, 0.9)"
same,"CAARS:Self Inattention/Memory Score, mean difference from placebo",adults with ADHD [1]; [7],"0.11 (−0.9, 1.2)"
same,"CAARS:Self Problem with Self-concept Score, mean difference from placebo",adults with ADHD [1]; [7],"0.33 (−0.7, 1.4)"
same,"CAARS:Self Total Score, mean difference from placebo",adults with ADHD [1]; [7],"−1.13 (−5.2, 2.9)"
same,"CGI-ADHD-S, mean difference from placebo",adults with ADHD [1]; [7],"−0.06 (−0.3, 0.2)"
same,Efficacy in the treatment of the core symptoms of ADHD,"adults with ADHD [1]; human patients, compared to placebo",statistically significant efficacy compared to placebo
same,Measures of quality of life relative to placebo,adults with ADHD [2]; ABT-894 2 mg QD,improved measures of quality of life relative to placebo
same,"WPAI Impaired Work Effectiveness (employed), Mean Diff.","adults with ADHD [2]; ABT-894 4 mg BID, N 22",−0.104
same,"WPAI Overall Work Impairment (employed), Mean Diff.","adults with ADHD [2]; ABT-894 4 mg BID, N 22",−0.093
same,"WPAI Overall Activity Impairment (all), Mean Diff.","adults with ADHD [2]; ABT-894 4 mg BID, N 43",−0.108
same,"Diastolic BP, mean difference from placebo",adults with ADHD [3]; ABT-894 1 mg QD,0.28 mm Hg
same,"Pulse, mean difference from placebo",adults with ADHD [3]; ABT-894 1 mg QD,−0.24 bpm
same,"Systolic BP, mean difference from placebo",adults with ADHD [3]; ABT-894 1 mg QD,1.36 mm Hg
same,"Weight, mean difference from placebo",adults with ADHD [3]; ABT-894 1 mg QD,0.48 kg
same,"Diastolic BP, mean difference from placebo",adults with ADHD [3]; ABT-894 2 mg QD,0.62 mm Hg
same,"Pulse, mean difference from placebo",adults with ADHD [3]; ABT-894 2 mg QD,0.42 bpm
same,"Systolic BP, mean difference from placebo",adults with ADHD [3]; ABT-894 2 mg QD,1.07 mm Hg
same,"Weight, mean difference from placebo",adults with ADHD [3]; ABT-894 2 mg QD,0.09 kg
same,"Diastolic BP, mean difference from placebo",adults with ADHD [3]; ABT-894 4 mg BID,−2.21 mm Hg
same,"Pulse, mean difference from placebo",adults with ADHD [3]; ABT-894 4 mg BID,0.98 bpm
same,"Systolic BP, mean difference from placebo",adults with ADHD [3]; ABT-894 4 mg BID,−0.48 mm Hg
same,"Weight, mean difference from placebo",adults with ADHD [3]; ABT-894 4 mg BID,-0.08 kg
same,"Diastolic BP, mean difference from placebo",adults with ADHD [3]; ABT-894 4 mg QD,0.23 mm Hg
same,"Pulse, mean difference from placebo",adults with ADHD [3]; ABT-894 4 mg QD,3.14 bpm
same,"Systolic BP, mean difference from placebo",adults with ADHD [3]; ABT-894 4 mg QD,−0.08 mm Hg
same,"Weight, mean difference from placebo",adults with ADHD [3]; ABT-894 4 mg QD,0.04 kg
